Literature values in patent US20170165286A1, “COMPOSITIONS AND METHODS FOR TREATING DIABETES AND LIVER DISEASES” (Cempra Pharmaceuticals, Inc., priority 2014, published 2017).

Columns and labels:
[1] = reported; cited from earlier work
[2] = reportedly; cited from earlier work

## CC[C@H]1OC(=O)[C@H](C)[C@@H](O[C@H]2C[C@@](C)(OC)[C@@H](O)[C@H](C)O2)[C@H](C)[C@@H](O[C@@H]2O[C@H](C)C[C@H](N(C)C)[C@H]2O)[C@](C)(O)C[C@@H](C)CN(C)[C@H](C)[C@@H](O)[C@]1(C)O [azithromycin]
[1]
  QT effect: QT positive

## CC[C@H]1OC(=O)[C@H](C)[C@@H](O[C@H]2C[C@@](C)(OC)[C@@H](O)[C@H](C)O2)[C@H](C)[C@@H](O[C@@H]2O[C@H](C)C[C@H](N(C)C)[C@H]2O)[C@](C)(OC)C[C@@H](C)C(=O)[C@H](C)[C@@H](O)[C@]1(C)O [clarithromycin]
[2]
  Liver toxicity: toxic to the liver
[1]
  QT effect: QT positive

## CC[C@H]1OC(=O)[C@H](C)C(=O)[C@H](C)[C@@H](O[C@@H]2O[C@H](C)C[C@H](N(C)C)[C@H]2O)[C@](C)(OC)C[C@@H](C)C(=O)[C@H](C)[C@H]2N(CCCCn3cnc(-c4cccnc4)c3)C(=O)O[C@]12C [telithromycin]
[1]
  QT effect: QT positive
